Test results: article PMC11645267, “Novel pharmacologic inhibition of lysine-specific demethylase 1 as a potential therapeutic for glioblastoma” (Cancer Gene Therapy, 2024)

Key:
Assay type in all cases: cell-based
GSC and LN229 cells = assay: PARP cleavage (apoptosis) by western blot; conditions: GSC1228, GSC222, GSC316, LN229; 5 μM
From the text: Super-enhancers consist of enhancer clusters with abundant binding of transcription factors and are highly enriched with H3K27ac marks. The H3K4me2 increased regions included the MYC locus and H3K4me2 de novo regions comprised Nestin and SOX2 loci (Fig. 2F, Supplementary Fig. S5A). These regions were also identified as super-enhancers in GSCs using data from our previous study (Fig. 2F). Compared to the large increase in H3K4me2 in these regions, changes in H3K4me3 were subtle after S2172 treatment (only 2582 regions were acquired modification) (Fig. 2C). Increasing the me2/me3 ratio at H3K4 is associated with reduced gene expression.
A mRNA expression of stem cell marker genes following 96 h treatment of GSC1228 with S2172 (5 μM). The y-axis indicates the expression change relative to DMSO-treated cells. Error bar indicates the SD. *P < 0.05. B Left panel, western blot analysis of MYC, Nestin, and SOX2 after treatment of GSC1228 with either DMSO or S2172 (5 μM) for 96 h. β-actin (ACTB) was used as the loading control. Right panel, Quantification of band signal intensities from the western blot. […] The ratio was calculated by dividing the cleaved-PARP band intensity by the full length-PARP band intensity. […]
[…] Quantification of signal intensity of western blot (right panel). […] Ratio was calculated by dividing cleaved band intensity by total protein band intensity. […]

F3 = assay: Cell proliferation assay (Cell Counting Kit 8); conditions: 96 h; F3 (normal neural stem cell line), 4 days; read-out: Growth inhibitory IC50 (GI50)
From the text: (§1) Supplementary materials and methods […]
(§2) Cell lines and culture conditions
(§3) Glioblastoma cell line, LN229, was obtained from the American Type Culture Collection (ATCC, Manassas, VA, USA). Normal fibroblast cell lines TIG3 and WI-38, TM31 (low grade glioma) were obtained from the RIKEN Bioresource Research Center (Tsukuba, Japan). Onda10 and KINGS1 (low grade glioma) cell lines were obtained from the Japanese Collection of Research Bioresources (Ibaraki, Japan). F3 is utilized as a neural stem cell line{Kim, 2004 #1412}{Natsume, 2013 #1009}. All cells were maintained in DMEM medium (Wako, Osaka, Japan) containing 5% fetal bovine serum (FBS, Thermo Fisher Scientific, Waltham, MA, USA) and 1% penicillin-streptomycin (Wako). […]
(§4) For the cell proliferation assay, cells at a density of 1 × 10^5 cells per well were seeded before treatment with LSD1 inhibitors. Cell proliferation was measured after 4 days using a Cell Counting Kit 8 (Dojindo, Kumamoto, Japan) according to the manufacturer ’s […]
(§5) instructions. For GSC cells, the CellTiter-Glo 3D Viability Assay (Promega, Madison, WI, USA) was used to measure the living cells. […]

WI38 = assay: Cell proliferation assay (Cell Counting Kit 8); conditions: Homo sapiens, WI-38, 96 h; WI38 (normal fibroblast), 4 days; read-out: Growth inhibitory IC50 (GI50)
From the text: as §1, §2, §3, §4, §5

LN229 = assay: Cell proliferation assay (Cell Counting Kit 8); conditions: Homo sapiens, LN-229, 96 h; LN229 (GBM cell line), 4 days; read-out: Growth inhibitory IC50 (GI50)
From the text: as §1, §2, §3, §4, §5

Onda10 = assay: Cell proliferation assay (Cell Counting Kit 8); conditions: 96 h; Onda10 (grade III glioma), 4 days; read-out: Growth inhibitory IC50 (GI50)
From the text: as §1, §2, §3, §4, §5

KINGS1 = assay: Cell proliferation assay (Cell Counting Kit 8); conditions: Homo sapiens, KINGS-1, 96 h; KINGS1 (grade III glioma), 4 days; read-out: Growth inhibitory IC50 (GI50)
From the text: as §1, §2, §3, §4, §5

TIG3 = assay: Cell proliferation assay (Cell Counting Kit 8); conditions: Homo sapiens, TIG-3, 96 h; TIG3 (normal fibroblast), 4 days; read-out: Growth inhibitory IC50 (GI50)
From the text: as §1, §2, §3, §4, §5

TM31 = assay: Cell proliferation assay (Cell Counting Kit 8); conditions: 96 h; TM31 (grade III glioma), 4 days; read-out: Growth inhibitory IC50 (GI50)
From the text: as §1, §2, §3, §4, §5

For `NC1CCC(NC2CC2c2cc(F)cc(F)c2OCc2ccccc2)CC1` (centres unmarked) [S2172], the “apoptosis, increased cleaved PARP” value (GSC and LN229 cells) was “induced apoptosis”, the IC50 (F3) was 22.5 µM and the IC50 (WI38) was 29.9 µM. It also gave an IC50 (LN229) of 8.2 µM, an IC50 (Onda10) of 21 µM and an IC50 (KINGS1) of 33 µM. The IC50 (TIG3) was greater than 40 µM and the IC50 (TM31) was 17 µM.
